Drawing on ChEMBL document CHEMBL1158749, “Cytotoxic cembranoid diterpenes from a soft coral Sinularia gibberosa” (J Nat Prod, 2005), this text covers IC50 for five compounds.

Values after ≈ are worked out from the molar mass of the structure shown.

Assay type in all cases: functional, cell-based
One assay concerns HL-60. In words: Cytotoxicity against human HL60 cells by MTT assay. Background: Tetrazolium assays rely on reduction of a dye to a coloured formazan, in cell work by metabolically active cells.
A further assay deals with BGC-823. Kind of assay: Cytotoxicity against human BGC823 cells by SRB assay. Background: Sulforhodamine B stains cellular protein and so reports cell mass.
The next assay relates to MDA-MB-435. In words: Cytotoxicity against human MDA-MB-435 cells by SRB assay.

`C=C1C(=O)O[C@@H]2[C@@H]1C[C@H]1O[C@]1(CO)CC/C=C(\C)CC/C=C(\C)[C@H]2O` [SINULAROLIDE B]: the IC50 is 5.2 mg/L (≈ 14.9 µM) in the assay on HL-60, 6.3 mg/L (≈ 18.1 µM) in the assay on BGC-823 and 8 mg/L (≈ 23 µM) in the assay on MDA-MB-435.
The corresponding values for `C=C1C(=O)O[C@H]2C/C(C)=C/CC/C(C)=C/CC[C@@]3(CO)O[C@@H]3C[C@H]12` [SINULAROLIDE D] are 2.3 mg/L (≈ 6.92 µM), 6.1 mg/L (≈ 18.3 µM) and more than 10 mg/L.
The corresponding values for `C=C1C(=O)O[C@@H]2[C@@H]1C[C@@H]1O[C@]1(C)CC/C=C(\C)CC/C=C(\C)[C@@H]2O` [SINULAROLIDE E] are 6 mg/L (≈ 18 µM), 8.6 mg/L (≈ 25.9 µM) and 2.1 mg/L (≈ 6.32 µM).
The corresponding values for `C=C1C(=O)O[C@@H]2[C@@H]1C[C@H](O)[C@@](O)(CO)CC/C=C(\C)CC/C=C(\C)[C@@H]2O` [SINULAROLIDE A] are more than 10 mg/L, more than 10 mg/L and more than 10 mg/L.
`C=C1C(=O)O[C@@H]2[C@@H]1C[C@H]1O[C@]1(CO)CC/C=C(\C)CC/C=C(\C)[C@@H]2O` [SINULAROLIDE C]: the IC50 in the assay with HL-60 is 5.1 mg/L (≈ 14.6 µM); with BGC-823, 5.2 mg/L (≈ 14.9 µM); in the assay on MDA-MB-435 it was 7.7 mg/L (≈ 22.1 µM).

Broadly, the IC50 is the midpoint of a concentration-inhibition curve. Low values mean greater potency in that assay, high ones weaker potency in that assay.
